The text below walks through data of EP4563579A1, “MACROCYCLIC EGFR INHIBITOR, AND PREPARATION METHOD THEREFOR AND PHARMACEUTICAL USE THEREOF” (Abbisko Therapeutics Co., Ltd., priority 2022, dated 2024).

SMILES strings stand for the structures. Read-outs that look alike come from different tables or passages of the source.

Common to all, as to format: cell-based
One test deals with A431 WT. Nature of the test: Cell proliferation assay (CellTiter-Glo), A431 WT. The note with it: A431 WT cells, 72 hour incubation, CTG readout. How it is done: (§1) • DMEM Medium (Gibco, Cat#11965118) • RPMI1640 Medium (Gibco, Cat#11875119) • Fetal Bovine Serum (FBS) (GBICO, Cat#10099-141) • CellTiter-Glo® Luminescent Cell Viability Assay Kit (Promega, Cat#G7572) 96-well, Black, Clear Flat Bottom Plate (Corning®, Cat# 3603)
(§2) • SpectraMax Multimode Microplate Reader MD, 2104-0010A; • CO2 Incubator, Thermo Scientific 3100 Series; • Biosafety Cabinet, Thermo Scientific, 1300 Series A2; • Inverted Microscope, Olympus, CKX41SF; • Siemens Refrigerator, KK25E76TI.
(§3) • 1. Cell Culture and Inoculation: • (1) Harvest cells in a logarithmic growth phase and count the cells using a […]. Test cell viability using a trypan blue exclusion method to ensure that cell viability is above 90%. • (2) Adjust the cell concentration to desired final density; and add 90 µL of cell suspension to a 96-well plate. • (3) Incubate the cells overnight at 37°C, under 5% CO2 and 95% humidity in the 96-well plate. • 2. T0 Reference Data: • (1) Add 10 µL PBS to each well of the T0 plate containing cells. • (2) Thaw the CTG reagent and equilibrate the plate to room temperature for 30 minutes. • (3) Add an equal volume of CTG solution to each well. • (4) Lyse cells by shaking on an orbital shaker for 5 minutes. • (5) Leave the plate at room temperature for 20 minutes to stabilize the luminescence signal. • (6) Read the T0 […]. • 3. Compound Dilution and Addition • (1) Add a corresponding volume of DMSO to a corresponding compound powder according to the compound information sheet to prepare a 10 mM stock solution. • (2) Prepare 1000-fold and 3.16-fold diluted compound solutions. • (3) Dilute the 1000× diluted compound solution 100-fold with PBS to prepare a 10-fold compound solution, with a maximum concentration of 10 µM, nine concentrations and 3.16-fold dilution. Then add 10 µL of the drug solution concentration to individual wells of the 96-well plate seeded with cells. Test each compound concentration in triplicate wells, and the final DMSO concentration is 0.1%. • (4) Incubate the cells in the 96-well plate containing the drug compounds at 37°C, under 5% CO2, and 95% humidity for an additional 72 hour period prior to performing the CTG analysis. • 4. Fluorescence Signal Reading • (1) Thaw the CTG reagent and equilibrate the plate to room temperature for 30 minutes. • (2) Add an equal volume of CTG solution to each well. • (3) Lyse cells by shaking on an orbital shaker for 5 minutes. • (4) Leave the plate at room temperature for 20 minutes to stabilize the […]. • (5) Read fluorescence value. • 5. Data Processing
(§4) Analyze the data by using GraphPad Prism 7.0 software, and use Non-linear S-curve regression to fit the dose-response curves, to calculate the IC50 values (in nM). The specific experiment results are presented in Table 1: [formula] Table 1: Biology Test Results
A general note: In ATP-based viability assays light output follows the ATP content of the culture.

The subject of test [1] is Ba/F3 EGFR-L858R-T790M-C797S (LTC). Nature of the test: Cell proliferation assay (CellTiter-Glo), Ba/F3 LTC. The note with it: Ba/F3 EGFR-L858R-T790M-C797S cells, 72 hour incubation, CTG readout. How it is done:
as §1, §2, §3, §4

Test [2] has as its system Ba/F3 EGFR-L858R-C797S (LC). Briefly: Cell proliferation assay (CellTiter-Glo), Ba/F3 LC. The note with it: Ba/F3 EGFR-L858R-C797S cells, 72 hour incubation, CTG readout. How it is done:
as §1, §2, §3, §4

On to `Cn1ncc2c1OCC1(CCCC1)Cn1nc(N3CCC(NS(C)(=O)=O)C3)c3cnc(cc31)Nc1ccnc-2n1` (stereo in doubt) [Example 52, (R)-N-(1-(1'-methylspiro(cyclopentane-1,6'-8-oxa-3-aza-4(6,1)-pyrazolo[4,3-c]pyridina-2(2,4)-pyrimidina-1(4,5) -pyrazolacyclooctaphane)-3' -yl)pyrrolidin-3-yl)methanes ulfonamide], for which the IC50 (usually the concentration at which inhibition is half-maximal) with A431 WT (Homo sapiens, A-431) was found to be 261 nM; in test [1] (Mus musculus, BaF3) it was 16.4 nM; in test [2] (Mus musculus, BaF3) it was 31 nM.

With `Cn1ncc2c1OCC1(CCCC1)Cn1nc(C#CC3CCNCC3)c3cnc(cc31)Nc1ccnc-2n1` [Example 6, 1'-methyl-3'-(piperidin-4-ylethynyl)spiro(cyclopentane-1,6'-8-oxa-3-aza-4(6,1)-pyrazolo[4,3-c]pyridina-2(2,4)-pyrimidina-1(4,5)-pyrazolacyclooctaphane)], the IC50 amounted to 1360 nM in the test on A431 WT (Homo sapiens, A-431); 28.3 nM in test [1] (Mus musculus, BaF3); 35.6 nM in test [2] (Mus musculus, BaF3).

On to `CN1CCC(F)(C#Cc2nn3c4cc(ncc24)Nc2ccnc(n2)-c2cnn(C)c2OCC2(CCC2)C3)CC1` [Example 12, 3'-((4-fluoro-1-methylpiperidin-4-yl)ethynyl)-1'-methyls piro(cyclobutane-1,6'-8-oxa-3-aza-4(6,1)-pyrazolo[4,3-c]pyridina-2(2,4)-pyrimidina-1 (4,5)-pyrazolacyclooctaphane)], for which the IC50 with A431 WT (Homo sapiens, A-431) came to 629 nM; in test [1] (Mus musculus, BaF3), 61.9 nM; in test [2] (Mus musculus, BaF3) it was 124 nM.

On to `Cn1ncc2c1OCC1(CCCC1)Cn1nc(N3CCC(F)(F)C3)c3cnc(cc31)Nc1ccnc-2n1` [Example 15, 3'-(3,3-difluoropyrrolidin-1-yl)-1'-methylspiro(cyclopentane-1,6'-8-oxa-3-aza-4(6, 1)-pyrazolo[4,3-c]pyridina-2(2,4)-pyrimidina-1(4,5)-pyrazolacyclooctaphane)], for which the half-inhibitory concentration (IC50) in the test with A431 WT (Homo sapiens, A-431) stood at 1050 nM; in test [1] (Mus musculus, BaF3), 32.4 nM; in test [2] (Mus musculus, BaF3) it was 84.4 nM.

As to `CO[C@H]1CCN(c2nn3c4cc(ncc24)Nc2ccnc(n2)-c2cnn(C)c2OCC2(CCCC2)C3)C1` [Example 16, (S)-3'-(3-methoxypyrrolidin-1-yl)-1'-methylspiro(cyclopentane-1,6'-8-oxa-3-aza-4(6,1)-pyrazolo[4,3-c]pyridina-2(2,4)-pyrimidina-1(4,5)-pyrazolacyclooctaphane)], the IC50 in the test with A431 WT (Homo sapiens, A-431) was found to be 482 nM; in test [1] (Mus musculus, BaF3), 13.3 nM; in test [2] (Mus musculus, BaF3), 23.8 nM.

In the case of `COC[C@@H]1CCN(c2nn3c4cc(ncc24)Nc2ccnc(n2)-c2cnn(C)c2OCC2(CCCC2)C3)C1` [Example 17, (R)-3'-(3-(methoxymethyl)pyrrolidin-1-yl)-1'-methyls piro(cyclopentane-1,6'-8-oxa-3-aza-4(6,1)-pyrazolo[4,3-c]pyridina-2(2,4)-pyrimidina-1(4,5)-pyrazolacyclooctaphane)], the IC50 with A431 WT (Homo sapiens, A-431) was 391 nM; in test [1] (Mus musculus, BaF3) it was 7.8 nM; in test [2] (Mus musculus, BaF3), 32.1 nM.

Regarding `COCC[C@@H]1CCN(c2nn3c4cc(ncc24)Nc2ccnc(n2)-c2cnn(C)c2OCC2(CCCC2)C3)C1` [Example 18, (S)-3'-(3-(2-methoxyethyl)pyrrolidin-1-yl)-1'-methylspi ro(cyclopentane-1,6'-8-oxa-3-aza-4(6,1)-pyrazolo[4,3-c]pyridina-2(2,4)-pyrimidina-1(4,5)-pyrazolacyclooctaphane)], the IC50 in the test with A431 WT (Homo sapiens, A-431) is 765 nM; in test [1] (Mus musculus, BaF3), 10.9 nM; in test [2] (Mus musculus, BaF3), 25.4 nM.

`COCC[C@H]1CCN(c2nn3c4cc(ncc24)Nc2ccnc(n2)-c2cnn(C)c2OCC2(CCCC2)C3)C1` [Example 19, (R)-3'-(3-(2-methoxyethyl)pyrrolidin-1-yl)-1'-methyls piro(cyclopentane-1,6'-8-oxa-3-aza-4(6,1)-pyrazolo[4,3-c]pyridina-2(2,4)-pyrimidina-1(4,5)-pyrazolacyclooctaphane)]: the concentration for half-maximal inhibition (IC50) with A431 WT (Homo sapiens, A-431) came to 771 nM; in test [1] (Mus musculus, BaF3), 11.3 nM; in test [2] (Mus musculus, BaF3), 19.5 nM.

Turning to `Cn1ncc2c1OCC1(CCCC1)Cn1nc(N3CC[C@H](C(C)(C)O)C3)c3cnc(cc31)Nc1ccnc-2n1` [Example 20, (S)-2-(1-(1'-methylspiro[cyclopentane-1,6'-8-oxa-3-aza-4(6,1)-pyrazolo[4,3-c]pyridina-2(2,4)-pyrimidina-1(4,5)-pyrazolacyclooctaphane]-3'-yl)pyrrolidin-3-yl)propan-2-ol], the IC50 was found to be 512 nM in the test with A431 WT (Homo sapiens, A-431); 16 nM in test [1] (Mus musculus, BaF3); 38 nM in test [2] (Mus musculus, BaF3).

Turning to `Cn1ncc2c1OCC1(CCCC1)Cn1nc(N3CC[C@H](NC(=O)OC(C)(C)C)C3)c3cnc(cc31)Nc1ccnc-2n1` [Example 47, Tert-butyl (S)-(1-(1'-methylspiro(cyclopentane-1,6'-8-oxa-3-aza-4(6,1)-pyrazolo[4,3-c]pyridina-2(2,4)-pyrimidina-1(4,5) -pyrazolacyclooctaphane)-3 '-yl)pyrrolidin-3-yl)carbam ate], the concentration for half-maximal inhibition (IC50) is 2570 nM in the test on A431 WT (Homo sapiens, A-431); 35.2 nM in test [1] (Mus musculus, BaF3); 82 nM in test [2] (Mus musculus, BaF3).

As to `CC(=O)N[C@@H]1CCN(c2nn3c4cc(ncc24)Nc2ccnc(n2)-c2cnn(C)c2OCC2(CCCC2)C3)C1` [Example 49], the figures for the half-maximal inhibitory concentration (IC50) (with A431 WT; in test [1] (read-out: IC50 BaF3 LTC); in test [2] (read-out: IC50 BaF3 LC)) were 926 nM, 29.6 nM and 59.9 nM, respectively.

On to `Cn1ncc2c1OCC1(CCCC1)Cn1nc(N3CC[C@@H](NC(=O)C(F)(F)F)C3)c3cnc(cc31)Nc1ccnc-2n1` [Example 50], for which the concentration for half-maximal inhibition (IC50) turned out to be 1060 nM in the test with A431 WT (Homo sapiens, A-431); 20.7 nM in test [1] (Mus musculus, BaF3); 86.5 nM in test [2] (Mus musculus, BaF3).

On to `Cn1ncc2c1OCC1(CCCC1)Cn1nc(N3CC[C@H](NC(=O)C(F)(F)F)C3)c3cnc(cc31)Nc1ccnc-2n1` [Example 56], for which the IC50 in the test with A431 WT (Homo sapiens, A-431) came out at 843 nM; in test [1] (Mus musculus, BaF3), 12.5 nM; in test [2] (Mus musculus, BaF3), 36.5 nM.

Regarding `C[C@H]1CCOc2c(cnn2C)-c2nccc(n2)Nc2cc3c(cn2)c(C#CC2CN(C)C2)nn31` [Example A2, (S)-1^1,5-dimethyl-4^3-((1-methylazetidin-3-yl)ethynyl)-1^1 H,4^1H-8-oxa-3-aza-4(6,1)-p yrazolo[4,3-c]pyridina-2(2,4)-pyrimidina-1(4,5)-pyrazol acyclooctaphane], the concentration for half-maximal inhibition (IC50) was found to be 2490 nM with A431 WT (Homo sapiens, A-431); 167 nM in test [1] (Mus musculus, BaF3); 176 nM in test [2] (Mus musculus, BaF3).

Turning to `C[C@H]1CCOc2c(cnn2C)-c2nccc(n2)Nc2cc3c(cn2)c(C#CC2CCN(C)CC2)nn31` [Example A3, (S)-1^1,5-dimethyl-4^3-((1-methylpiperidin-4-yl)ethynyl)-1^1H,4^1H-8-oxa-3-aza-4(6,1) -pyrazolo[4,3-c]pyridina-2(2,4)-pyrimidina-1(4,5)-pyra zolacyclooctaphane], the IC50 with A431 WT (Homo sapiens, A-431) came to 1840 nM; in test [1] (Mus musculus, BaF3), 62.1 nM; in test [2] (Mus musculus, BaF3), 53.3 nM.
